# Data as given in the supplement of paper PMC12420376.
# Experiments:
# OVCAR8 = assay: drug sensitivity score (DSS2) on cancer cell count; higher = more sensitive; extreme values may be limits of the assay; conditions: 72 h
# Method in brief: (§1)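 Ovarian cancer cells grown alone or 1:1 with lung or skin fibroblasts in direct co-culture were treated for 72 h on 384-well plates carrying 528 approved and investigational compounds at 5 concentrations. Fixed cells were stained for CK8/18 with Hoechst and imaged to count cancer cells. A drug sensitivity score was then derived in Breeze from logistic curve fits.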
# KURAMOCHI = assay: as above; conditions: 72 h
# Method in brief: as §1
# [1] = co-cultured fibroblast: BJHTERT
# [2] = co-cultured fibroblast: none (monoculture)
SMILES,drug sensitivity score (OVCAR8; [1]),drug sensitivity score (OVCAR8; co-cultured fibroblast: WI38),drug sensitivity score (OVCAR8; [2]),drug sensitivity score (KURAMOCHI; [1]),drug sensitivity score (KURAMOCHI; co-cultured fibroblast: WI38),drug sensitivity score (KURAMOCHI; [2])
O=C(Nc1ccncc1)C(=O)c1cn(Cc2ccc(Cl)cc2)c2ccccc12 [Indibulin],11 DSS,26.6 DSS,21.2 DSS,13.1 DSS,17.2 DSS,19.5 DSS
Cc1c(F)cc(C(=O)NC2CC2)cc1-c1ccc(C(=O)NCC(C)(C)C)cn1 [Losmapimod],0.7 DSS,0 DSS,1.5 DSS,2.4 DSS,0 DSS,0 DSS
COc1cc2c(NC3CCN(C(C)C)CC3)nc(N3CCC(F)(F)CC3)nc2cc1OCCCN1CCCC1 [UNC0642],8 DSS,0 DSS,2.2 DSS,1.5 DSS,0.7 DSS,0.1 DSS
COc1ccc(COc2cc3oc(=O)c4cc(C(C)O)ccc4c3cc2OC)cc1 (stereo not drawn) [Palomid-529],1.1 DSS,1 DSS,0 DSS,0 DSS,0 DSS,0 DSS
Nc1ncn([C@@H]2O[C@H](CO)[C@@H](O)[C@H]2O)c(=O)n1 [Azacitidine],3.9 DSS,1.5 DSS,8.9 DSS,2.8 DSS,2.6 DSS,9.3 DSS
CN1CCN(c2nc(C3=C(c4c[nH]c5ccccc45)C(=O)NC3=O)c3ccccc3n2)CC1 [Sotrastaurin],0.2 DSS,2.6 DSS,0 DSS,1.1 DSS,0.6 DSS,12 DSS
CC(C)(C)NC(=O)[C@H]1CC[C@H]2[C@@H]3CC[C@H]4NC(=O)C=C[C@]4(C)[C@H]3CC[C@]12C [Finasteride],2.1 DSS,0 DSS,0 DSS,0 DSS,0 DSS,0 DSS
NC(=S)N/N=C/c1ncccc1N [Triapine],5.2 DSS,9.3 DSS,8.7 DSS,4.5 DSS,6.3 DSS,8.2 DSS
C[C@H]1CN(C2COC2)CCN1c1ccc(Nc2cc(-c3ccnc(N4CCn5c(cc6c5CC(C)(C)C6)C4=O)c3CO)cn(C)c2=O)nc1 [GDC-0853],0 DSS,2.3 DSS,0 DSS,0 DSS,0 DSS,0 DSS
CN1CCN(CCOc2cc(OC3CCOCC3)c3c(Nc4c(Cl)ccc5c4OCO5)ncnc3c2)CC1 [Saracatinib],9.2 DSS,13.3 DSS,14.6 DSS,10.4 DSS,9.6 DSS,9.9 DSS
O=C(CCCCCCC(=O)Nc1ccccc1)NO [Vorinostat],17.1 DSS,22.8 DSS,9.4 DSS,9.5 DSS,9.7 DSS,5.5 DSS
CCC(C)(C)C(=O)O[C@H]1C[C@@H](C)C=C2C=C[C@H](C)[C@H](CC[C@@H]3C[C@@H](O)CC(=O)O3)[C@H]21 [Simvastatin],1.8 DSS,14.6 DSS,3.6 DSS,0.4 DSS,0 DSS,8.6 DSS
CC[C@@]1(O)C(=O)OCc2c1cc1n(c2=O)Cc2cc3c(CN(C)C)c(O)ccc3nc2-1 [Topotecan],22.2 DSS,23.1 DSS,30.4 DSS,20.9 DSS,25.7 DSS,28 DSS
CCS(=O)(=O)c1cccc(-c2cc(C(=O)NC3CCN(C)CC3)c(C)c3[nH]c4ncc(C)cc4c23)c1 [TAK-901],9.4 DSS,8.3 DSS,7.1 DSS,11.8 DSS,15 DSS,13.7 DSS
COc1cc(Nc2c(C#N)cnc3cc(OCCCN4CCN(C)CC4)c(OC)cc23)c(Cl)cc1Cl [Bosutinib],8.6 DSS,9.1 DSS,8.9 DSS,12.9 DSS,11 DSS,12.6 DSS
CNS(=O)(=O)Nc1nccc(Cc2c(C)c3ccc(Oc4ncccn4)cc3oc2=O)c1F,0 DSS,5.7 DSS,0.2 DSS,0 DSS,0 DSS,4.3 DSS
COc1cc(Nc2ncc(F)c(Nc3ccc4c(n3)N(COP(=O)(O)O)C(=O)C(C)(C)O4)n2)cc(OC)c1OC [Fostamatinib],0 DSS,0 DSS,0 DSS,0 DSS,2 DSS,0.3 DSS
COc1cc2ncnc(Oc3cccc(NC(=O)Nc4cc(C(C)(C)C(F)(F)F)on4)c3)c2cc1OC,0 DSS,0 DSS,0.8 DSS,0 DSS,1.4 DSS,0 DSS
CC(C)(C)c1cc(NC(=O)Nc2ccc(-c3cn4c(n3)sc3cc(OCCN5CCOCC5)ccc34)cc2)no1 [Quizartinib],3.6 DSS,6.2 DSS,0 DSS,0 DSS,0 DSS,0 DSS

SMILES,drug sensitivity score (OVCAR8; [1]),drug sensitivity score (OVCAR8; co-cultured fibroblast: WI38),drug sensitivity score (OVCAR8; [2]),drug sensitivity score (KURAMOCHI; [1]),drug sensitivity score (KURAMOCHI; co-cultured fibroblast: WI38),drug sensitivity score (KURAMOCHI; [2])
COc1ccc(CCc2nc3cc(-c4c(C)noc4C)ccc3n2C[C@H](C)N2CCOCC2)cc1Cl [SGC-CBP30],9.9 DSS,1.7 DSS,4.5 DSS,5.7 DSS,1.3 DSS,3.2 DSS
COc1cc2nccc(Oc3ccc(NC(=O)NC4CC4)c(Cl)c3)c2cc1C(N)=O [Lenvatinib],0 DSS,0 DSS,0.7 DSS,0.2 DSS,0 DSS,0 DSS
CS(=O)(=O)c1ccc(-c2cnc(N)c(C(=O)Nc3ccccc3)n2)cc1 [VE-821],3.1 DSS,0 DSS,0 DSS,0 DSS,0 DSS,0 DSS
CC(=O)Nc1ccc(C(=O)Nc2ccccc2N)cc1 [Tacedinaline],0 DSS,0 DSS,1.8 DSS,0 DSS,2.6 DSS,3.7 DSS
Nc1nc(OCc2cc(Br)cs2)c2[nH]cnc2n1 [Lomeguatrib],0 DSS,0.8 DSS,0 DSS,0 DSS,0 DSS,0 DSS
CCc1nc(C(N)=O)c(Nc2ccc(N3CCC(N4CCN(C)CC4)CC3)c(OC)c2)nc1NC1CCOCC1 [Gilteritinib],1.5 DSS,0 DSS,0 DSS,0.4 DSS,0 DSS,0 DSS
Cn1cc(C2=C(c3cn(C4CCN(Cc5ccccn5)CC4)c4ccccc34)C(=O)NC2=O)c2ccccc21 [Enzastaurin],0 DSS,6.4 DSS,0 DSS,0 DSS,0.6 DSS,0 DSS
Nc1nc(Cl)nc2c1ncn2[C@H]1C[C@H](O)[C@@H](CO)O1 [Cladribine],14.7 DSS,20.7 DSS,15.7 DSS,5.2 DSS,6.7 DSS,1.4 DSS
N#CC1(c2ccc(NC(=O)c3cccnc3NCc3ccncc3)cc2)CCCC1 [Apatinib],0 DSS,4.9 DSS,2.2 DSS,0 DSS,0 DSS,0 DSS
O=c1[nH]c(C2CCCN2)nc2c1oc1ccc(Cl)cc12 (stereo not drawn),4.4 DSS,1.8 DSS,2.8 DSS,2.2 DSS,5.4 DSS,4.1 DSS
NC(=O)c1cccc2cn(-c3ccc([C@@H]4CCCNC4)cc3)nc12 [Niraparib],14.9 DSS,8.1 DSS,9 DSS,5.8 DSS,6.8 DSS,5.1 DSS
Cc1ccc(C(=O)Nc2ccc(CN3CCN(C)CC3)c(C(F)(F)F)c2)cc1C#Cc1cnc2cccnn12 [Ponatinib],3.5 DSS,6.5 DSS,3.1 DSS,8.3 DSS,6.3 DSS,21.9 DSS
O=C(O)C(=O)O.[NH-][C@@H]1CCCC[C@H]1[NH-].[Pt+2] [Oxaliplatin],13.9 DSS,19.6 DSS,18.2 DSS,9.3 DSS,16 DSS,18.1 DSS
COc1cc(OC2CCN(C)CC2)ccc1Nc1ncc2c(n1)n(C1CCCC1)c(=O)n2C [AZ 3146],8.3 DSS,9.6 DSS,4.3 DSS,1.8 DSS,3.2 DSS,1.5 DSS
O=C(c1cc(Cc2n[nH]c(=O)c3ccccc23)ccc1F)N1CCN(C(=O)C2CC2)CC1 [Olaparib],12.5 DSS,6.9 DSS,9 DSS,4.6 DSS,7.3 DSS,11.4 DSS
Cc1cccc(-c2nn3c(c2-c2ccnc4ccc(C(N)=O)cc24)CCC3)n1 [Galunisertib],0 DSS,0 DSS,0 DSS,3.4 DSS,0 DSS,13.8 DSS
Cc1c2oc3c(C)ccc(C(=O)N[C@@H]4C(=O)N[C@H](C(C)C)C(=O)N5CCC[C@H]5C(=O)N(C)CC(=O)N(C)[C@@H](C(C)C)C(=O)O[C@@H]4C)c3nc-2c(C(=O)N[C@@H]2C(=O)N[C@H](C(C)C)C(=O)N3CCC[C@H]3C(=O)N(C)CC(=O)N(C)[C@@H](C(C)C)C(=O)O[C@@H]2C)c(N)c1=O [Dactinomycin],31.6 DSS,32.4 DSS,31.8 DSS,25.7 DSS,25.9 DSS,34 DSS
CO[C@H]1C[C@@H]2CC[C@@H](C)[C@@](O)(O2)C(=O)C(=O)N2CCCC[C@H]2C(=O)O[C@H]([C@H](C)C[C@@H]2CC[C@@H](OP(C)(C)=O)[C@H](OC)C2)CC(=O)[C@H](C)/C=C(\C)[C@@H](O)[C@@H](OC)C(=O)[C@H](C)C[C@H](C)/C=C/C=C/C=C/1C [Ridaforolimus],7.1 DSS,0 DSS,9.8 DSS,11.6 DSS,13.4 DSS,8.1 DSS
O=C(c1ccc(OCCN2CCCCC2)cc1)c1c(-c2ccc(O)cc2)sc2cc(O)ccc12 [Raloxifene],2.5 DSS,0 DSS,0 DSS,4 DSS,0 DSS,0 DSS
